Measured values from US20020115642A1, “Beta-lactam antibiotics” (priority 2000, published 2002).
In brackets after ≈: the same amount, converted by molar mass. Where two headings read alike, the source gives them in different places.

How the values were obtained:
Assay in all cases: Susceptibility testing (MIC, modified NCCLS method)
Staphylococcus aureus = assay type: cell-based
Protocol: (§1) The NCCLS (National Committee for Clinical Laboratory Standards) method to determine MIC's of antimicrobial compounds was modified for high-throughput screening. All stocks of tested compounds were prepared in either water or in dimethylsulfoxide (DMSO), depending on the solubility. […] Briefly 20 2-fold serial dilutions of testing compounds from the highest concentration were made in a 384-well microtiter plate. Each well was inoculated with testing bacteria in broth to a final concentration of approximately 1-1.5×10^6 cells/ml. Bacterial growth was determined by the increase of optical density at 600 nm using a microplate reader (Tecan SpectraFluor Plus).

K. pneumoniae = assay type: cell-based, Klebsiella pneumoniae
Protocol: as §1

E. cloacae = assay type: cell-based, Enterobacter cloacae
Protocol: as §1

E. faecalis = assay type: cell-based, Enterococcus faecalis
Protocol: as §1

E. aerogenes = assay type: cell-based, Enterobacter aerogenes
Protocol: as §1

P. aeruginosa = assay type: cell-based, Pseudomonas aeruginosa
Protocol: as §1

E. coli N = assay type: cell-based, Escherichia coli; conditions: E. coli (N)
Protocol: as §1

E. coli/TEM-1 = assay type: cell-based, Escherichia coli
Protocol: as §1

[1] = Staphylococcus aureus, ATCC11632, S. aureus ATCC 11632, read-out: MIC
[2] = Staphylococcus aureus, ATCC33594, S. aureus ATCC 33594, read-out: MIC
[3] = Staphylococcus aureus, ATCC700260, S. aureus ATCC 700260, read-out: MIC
[4] = Staphylococcus aureus, ATCC700699, S. aureus ATCC 700699, read-out: MIC
[5] = Klebsiella pneumoniae, ATCC51503, K. pneumoniae ATCC 51503, read-out: MIC
[6] = Klebsiella pneumoniae, ATCC700721, K. pneumoniae ATCC 700721, read-out: MIC
[7] = Enterobacter cloacae, ATCC23355, E. cloacae ATCC 23355, read-out: MIC
[8] = Enterococcus faecalis, ATCC49757, E. faecalis ATCC 49757, read-out: MIC
[9] = Enterococcus faecalis, ATCC700802, E. faecalis ATCC 700802, read-out: MIC
[10] = Klebsiella aerogenes, ATCC35028, E. aerogenes ATCC 35028, read-out: MIC
[11] = Pseudomonas aeruginosa, ATCC21726, P. aeruginosa ATCC 21726, read-out: MIC
[12] = Pseudomonas aeruginosa, ATCC29872, P. aeruginosa ATCC 29872, read-out: MIC
[13] = Escherichia coli, read-out: MIC

Row | Molecule | MIC (Staphylococcus aureus; S. aureus ATCC 11632) [µg/mL] | MIC (Staphylococcus aureus; S. aureus ATCC 33594) [µg/mL] | MIC (Staphylococcus aureus; S. aureus ATCC 700260) [µg/mL] | MIC (Staphylococcus aureus; S. aureus ATCC 700699) [µg/mL] | MIC (K. pneumoniae; K. pneumoniae ATCC 51503) [µg/mL] | MIC (K. pneumoniae; K. pneumoniae ATCC 700721) [µg/mL] | MIC (E. cloacae; E. cloacae ATCC 23355) [µg/mL] | MIC (E. faecalis; E. faecalis ATCC 49757) [µg/mL] | MIC (E. faecalis; E. faecalis ATCC 700802) [µg/mL] | MIC (E. aerogenes; E. aerogenes ATCC 35028) [µg/mL] | MIC (P. aeruginosa; P. aeruginosa ATCC 21726) [µg/mL] | MIC (P. aeruginosa; P. aeruginosa ATCC 29872) [µg/mL] | further results
1 | CON=C(C(=O)NC1C(=O)N2C(C(=O)O)=C(COc3cc(Cl)ccc3Oc3ccc(Cl)cc3Cl)CSC12)c1csc(N)n1 (stereo not shown) [Compound 44] | 0.5 (≈ 0.73 µM) | 0.063 (≈ 0.092 µM) | 0.063 (≈ 0.092 µM) | >32 | 8 (≈ 11.7 µM) | 8 (≈ 11.7 µM) | 4 (≈ 5.84 µM) | 32 (≈ 46.7 µM) | 32 (≈ 46.7 µM) | >32 | >32 | >32 | 
2 | O=C(Cc1cccs1)NC1C(=O)N2C(C(=O)O)C(COC(=O)Oc3cc(Cl)ccc3Oc3ccc(Cl)cc3Cl)=CS[C@H]12 (stereo partly shown) [Compound 15, 3-((2-(2,4-Dichlorophenoxy)-5-chlorophenoxy)carbonyloxy)methyl-7-(2-thienylacetamido)-2-cephem-4-carboxylic acid] |  |  |  |  |  |  |  |  |  |  |  |  | MIC (Staphylococcus aureus; [1]): 0.61 µg/mL (≈ 0.911 µM); MIC (Staphylococcus aureus; [2]): 0.061 µg/mL (≈ 0.0911 µM); MIC (Staphylococcus aureus; [3]): 0.061 µg/mL (≈ 0.0911 µM); MIC (Staphylococcus aureus; [4]): 0.061 µg/mL (≈ 0.0911 µM); MIC (K. pneumoniae; [5]): 1.96 µg/mL (≈ 2.93 µM); MIC (K. pneumoniae; [6]): 1.96 µg/mL (≈ 2.93 µM); MIC (E. cloacae; [7]): 0.25 µg/mL (≈ 0.373 µM); MIC (E. faecalis; [8]): > 15.7 µg/mL; MIC (E. faecalis; [9]): 15.7 µg/mL (≈ 23.4 µM); MIC (E. aerogenes; [10]): 0.98 µg/mL (≈ 1.46 µM); MIC (P. aeruginosa; [11]): > 15.7 µg/mL; MIC (P. aeruginosa; [12]): > 15.7 µg/mL; MIC (E. coli N; [13]): 0.008 µg/mL (≈ 0.0119 µM); MIC (E. coli/TEM-1; Escherichia coli): 0.0031 µg/mL (≈ 0.00463 µM)
3 | C[C@@H](O)[C@H]1C(=O)N2C(C(=O)O)=C(SCCN=CN)C[C@H]12 [Imipenem, reference compound] |  |  |  |  |  |  |  |  |  |  |  |  | MIC range (K. pneumoniae; K. pneumoniae (5)): 0.063 to 8 µg/mL; MIC (K. pneumoniae; Klebsiella pneumoniae, K. pneumoniae (5), read-out: GM* MIC (geometric mean)): 0.46 µg/mL (≈ 1.54 µM); MIC range (E. cloacae; E. cloacae (1)): 0.0078 µg/mL (≈ 0.0261 µM); MIC (E. cloacae; Enterobacter cloacae, E. cloacae (1), read-out: GM* MIC (geometric mean)): 0.0078 µg/mL (≈ 0.0261 µM); MIC range (E. aerogenes; E. aerogenes (5)): 0.5 to 1 µg/mL; MIC (E. aerogenes; Klebsiella aerogenes, E. aerogenes (5), read-out: GM* MIC (geometric mean)): 0.66 µg/mL (≈ 2.2 µM)
4 | O=C(Cn1cnnn1)Nc1ncc(CC(=O)NC2C(=O)N3C(C(=O)O)=C(COc4cc(Cl)ccc4Oc4ccc(Cl)cc4Cl)CS[C@H]23)s1 (stereo partly shown) [Compound 43] | 32 (≈ 42.6 µM) | 0.063 (≈ 0.0838 µM) | 8 (≈ 10.6 µM) | 32 (≈ 42.6 µM) | 32 (≈ 42.6 µM) | 4 (≈ 5.32 µM) | 32 (≈ 42.6 µM) | 32 (≈ 42.6 µM) | 32 (≈ 42.6 µM) | 32 (≈ 42.6 µM) | >32 | >32 | MIC (Staphylococcus aureus; S. aureus ATCC 33591): 0.125 µg/mL (≈ 0.166 µM); MIC (E. coli N): 2 µg/mL (≈ 2.66 µM); MIC (E. coli/TEM-1; E. coli/Tem-1): 0.25 µg/mL (≈ 0.332 µM)
5 | 3-(2-(2,4-Dichlorophenoxy)-5-chlorophenoxy)methyl-7-[4-(2-aminothiazole)-yl-2-acetamido]-3-cephem-4-carboxylic acid [Compound 39] |  |  | 0.002 | 4.0 | 16 |  |  | 16 |  | >16 | >16 |  | MIC (E. coli N): 1 µg/mL; MIC (E. coli/TEM-1; E. coli/Tem-1): 0.063 µg/mL
6 | O=C(Cc1cccs1)NC1C(=O)N2C(C(=O)O)=C(C=CCOc3ccc(Cl)cc3C(=O)Nc3ccc(Cl)c(Cl)c3)CS[C@H]12 (stereo partly shown) [Compound 35, 3-{3-[4-Chloro-2-(3,4-dichloro-phenylcarbamoyl)-phenoxy]-propenyl}-7-(2-thiophene-acetmido)-3-cephem-4-carboxylic acid] | 0.063 (≈ 0.0928 µM) | 0.063 (≈ 0.0928 µM) | 0.25 (≈ 0.368 µM) | >32 | >32 | >32 | >32 | 8 (≈ 11.8 µM) | >32 | >32 | >32 | >32 | 
7 | O=C(COc1ccc(O)cc1)NC1C(=O)N2C(C(=O)O)=C(COc3cc(Cl)ccc3Oc3ccc(Cl)cc3Cl)CS[C@H]12 (stereo partly shown) [Compound 40, 3-(2-(2,4-dichlorophenoxy)-5-chlorophenoxy)methyl-7-[2-(4-hydroxyphenoxy)acetamido]-3-cephem-4-carboxylic acid] |  |  |  |  |  |  |  |  |  |  |  |  | MIC (Staphylococcus aureus; [1]): 16 µg/mL (≈ 24.5 µM); MIC (Staphylococcus aureus; Staphylococcus aureus, ATCC33591, S. aureus ATCC 33591, read-out: MIC): 0.125 µg/mL (≈ 0.192 µM); MIC (Staphylococcus aureus; [2]): 0.063 µg/mL (≈ 0.0966 µM); MIC (Staphylococcus aureus; [3]): 4 µg/mL (≈ 6.14 µM); MIC (Staphylococcus aureus; [4]): 32 µg/mL (≈ 49.1 µM); MIC (K. pneumoniae; [5]): 16 µg/mL (≈ 24.5 µM); MIC (K. pneumoniae; [6]): 2 µg/mL (≈ 3.07 µM); MIC (E. cloacae; [7]): 16 µg/mL (≈ 24.5 µM); MIC (E. faecalis; [8]): 16 µg/mL (≈ 24.5 µM); MIC (E. faecalis; [9]): 16 µg/mL (≈ 24.5 µM); MIC (E. aerogenes; [10]): 32 µg/mL (≈ 49.1 µM); MIC (P. aeruginosa; [11]): > 32 µg/mL; MIC (P. aeruginosa; [12]): > 32 µg/mL; MIC (E. coli N; [13]): 0.5 µg/mL (≈ 0.767 µM); MIC (E. coli/TEM-1; Escherichia coli): 0.063 µg/mL (≈ 0.0966 µM)
